From patent US10058586B2, “Use of human small leucine zipper protein in adipocyte differentiation procedure” (Korea University Research and Business Foundation, priority 2013, dated 2018)
d = 2'-deoxy (DNA)

Target: T1, PPARγ2 (Homo sapiens, UniProt P37231)
T1 sequence (P37231 1-505): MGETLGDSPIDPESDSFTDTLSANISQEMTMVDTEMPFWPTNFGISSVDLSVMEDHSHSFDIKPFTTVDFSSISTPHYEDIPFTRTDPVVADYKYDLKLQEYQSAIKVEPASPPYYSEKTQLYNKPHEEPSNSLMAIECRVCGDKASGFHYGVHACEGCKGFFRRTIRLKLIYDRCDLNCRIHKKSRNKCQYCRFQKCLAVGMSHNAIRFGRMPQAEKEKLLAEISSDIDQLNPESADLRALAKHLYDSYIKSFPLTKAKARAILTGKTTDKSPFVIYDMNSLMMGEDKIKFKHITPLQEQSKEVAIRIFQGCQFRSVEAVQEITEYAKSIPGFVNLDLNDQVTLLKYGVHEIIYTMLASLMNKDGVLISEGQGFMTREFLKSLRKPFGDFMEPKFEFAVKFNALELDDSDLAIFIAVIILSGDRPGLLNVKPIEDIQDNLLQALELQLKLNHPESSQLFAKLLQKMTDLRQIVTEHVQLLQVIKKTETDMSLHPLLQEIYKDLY
Assay: Luciferase reporter gene analysis (FABP4-Luc) of PPARγ2 transcriptional activity in 293T cells
Type: cell-based
Set-up: expressed in transfected cells; host or cells: 293T cells
Details: for sLZIP-mediated PPARγ2 transcriptional activity (luciferase): 293T cells expressing sLZIP, 100 nM si-RNAs, with or without 10 nM RZD
Experimental: C3H10T1/2 and 293T cells were plated in a 12-well culture dish at a density of 2×10^5 cells/well and incubated for 24 hours. Then, according to instructions of the manufacturer, the cells were transfected with a 0.2 μg of reporter genes and 0.1 to 0.5 μg of a laboratory plasmid using Lipofectamine 2000 or Genefectine. After 24 hours, the cells were cultured in a serum-free DMEM with or without 10 nM of rosiglitazone. siRNAs were prepared using sLZIP and HDAC target sequences (Table 1). For an RNA interference experiment, according to instructions of the manufacturer, the cells were transfected with scrambled control group RNA and appropriate siRNAs using Lipofectamine 2000. Human MSC and C3H10T/1/2 cells were infected with an adenovirus vector containing cDNA of human sLZIP or an empty vector. The infected medium was exchanged with a fresh medium after two hours.
Appropriately transfected cells were washed with cold PBS twice, and a reporter lysis buffer (Promega) was used and lysed in a culture dish. Luciferase analysis was performed using a luciferase analysis system (Promega Corporation, Madison, Wis.). A luciferase activity was recorded in Luminometer 20/20^n (Turner BioSystems, Sunnyvale, Calif.) according to instructions of the manufacturer. The luciferase activity was normalized to a β-galactosidase activity. For β-galactosidase analysis, CMV-β-galactosidase was transfected with luciferase reporter genes. All pieces of data were represented as mean±standard deviation of the results from at least three independent experiments.
In order to examine an effect of sLZIP on the transcriptional activity of PPARγ2, 293T cells were temporarily transfected with PPARγ2 (0.5 μg), β-galactosidase (0.1 μg), FABP4-Luc reporter genes (0.2 μg) and sLZIP at different contents (0.1 to 0.5 μg). After the transfection, the cells were stimulated with or without 10 nM of rosiglitazone (RZD) (FIG. 1A), pioglitazone (PZD) (FIG. 1B), and troglitazone (TZD) (FIG. 1C). A relative luciferase activity was analyzed with or without cell ligand treatment 24 hours after transfection. Also, the 293T cells were transiently transfected with si-sLZIP at different contents (50 and 100 nM), and the cells were treated or not treated with RZD (FIG. 1D). FABP4-Luc stable C3H10T1/2 cells were infected with a sLZIP-expressing adenovirus, and then differentiated into adipocytes for 4 days (FIG. 1E). A luciferase activity was normalized to a β-galactosidase activity and represented as a relative activity (fold change). All experiments were repeated three times, and bars in the graph represent mean±standard deviation. *, P<0.05; **, P<0.01
For this purpose, 293T cells were transiently transfected with PPARγ2 (0.5 μg), (3-galactosidase (0.1 μg), FABP4-Luc reporter genes (0.2 μg) and sLZIP (0.1 μg). After the transfection, the cells were stimulated with or without 10 nM of RZD and 10 nM of TSA (FIG. 4A). A promoter activity was measured according to luciferase analysis. In the 293T cells, FABP4-Luc reporter genes, sLZIP, PPAR, β-galactosidase, and 100 nM of si-RNAs and HDAC1, 2, 3 and 8 for a control group were expressed. After the transfection, the cells were stimulated with or without 10 nM of RZD, and a promoter activity was measured (FIG. 4B). 293T cells were temporarily transfected with FABP4-Luc reporter genes, PPARγ2, β-galactosidase, HDAC3 (0.5 μg) and sLZIP (0.1 μg). After the transfection, the cells were stimulated with or without 10 nM of RZD, and luciferase analysis was performed (FIG. 4C). A luciferase activity was normalized to a β-galactosidase activity and represented as a relative intensity (fold change). All experiments were repeated three times, and bars in the graph represent mean±standard deviation. GFP-sLZIP expression constructs were expressed in C3H10T1/2 cells, rabbit anti-HDAC3 antibodies and Texas Red-labeled anti-rabbit antibodies were used and analysis was performed under a fluorescence microscope. The nucleus was stained with DAPI (FIG. 4D). […]

| Substance | transcriptional activity of PPARγ2 (relative luciferase activity) (293T cells, si-sLZIP 50 and 100 nM, treated or not treated with RZD) | sLZIP-mediated PPARγ2 transcriptional activity (luciferase) |
| --- | --- | --- |
| si-sLZIP: siRNA for sLZIP, SEQ ID NO: 5 and 6 (+dTdT) (chain 1 GGACCCAGAUGACUCCACAGCAUAU; chain 2 AUAUGCUGUGGAGUCAUCUGGGUCC; RNA, 3' dTdT, backbone not given here) [reference compound] | increased the transcriptional activity of PPARγ2 | – |
| siRNA for HDAC1: siRNA with HDAC1 target sequence, SEQ ID NO: 7 and 8 (chain 1 CGACUGUUUGAGAACCUUA; chain 2 UAAGGUUCUCAAACAGUCGCU; RNA, 3' dTdT, backbone not given here) [reference compound] | – | not involved in sLZIP-mediated PPARγ2 regulation |
| siRNA for HDAC2: siRNA with HDAC2 target sequence, SEQ ID NO: 9 and 10 (chain 1 GGUCAAUAAGACCAGAUAA; chain 2 UUAUCUGGUCUUAUUGACCG; RNA, 3' dTdT, backbone not given here) [reference compound] | – | not involved in sLZIP-mediated PPARγ2 regulation |
| siRNA for HDAC3: siRNA with HDAC3 target sequence, SEQ ID NO: 11 and 12, used to knock down HDAC3 (chain 1 GCCGGUUAUCAACCAGGUA; chain 2 UACCUGGUUGAUAACCGGC; RNA, 3' dTdT, backbone not given here) [reference compound] | – | significantly increased |
| siRNA for HDAC8: siRNA with HDAC8 target sequence, SEQ ID NO: 13 and 14 (chain 1 CAUUCAGGAUGGCAUACAA; chain 2 UUGUAUGCCAUCCUGAAUGGG; RNA, 3' dTdT, backbone not given here) [reference compound] | – | not involved in sLZIP-mediated PPARγ2 regulation |
